Measured values: patent US20230029496A1, “AMINO ACID ALTERNATIVE CURING SYSTEM” (THE TEXAS A&M UNIVERSITY SYSTEM, priority 2019, published 2023)
Several values for one entry are separate records, joined by “and”; a condition that tells them apart may be missing. Identical values can stand only once. Like-named read-outs stand apart in the source and are kept apart here. Marks after values point to notes of the source that are not given here.

Assays:
[1] = test system: nitric oxide synthase system; conditions: poultry; for Residual Nitrite, LSMean main effect of Temperature: L-arginine
Experimental: (§1) Fresh ground meat (beef, pork or poultry) was separated in ˜0.5 Kg batches and mixed with 2% salt and 10% added water. […] Each individual batch was mixed (1 min) in a food processor, removed for temperature and pH analyses and then placed into a jerky extruder tube. Approximately 25 g of sample were extruded into 50 mL centrifuge, then capped and labeled and placed into a controlled water batch and heated to a designated internal endpoint temperature (132, 158, or 165° F.).
(§2) Samples also contained 547 ppm sodium erythorbate, a cure accelerator (Phase I) and without sodium erythorbate (Phase II). Samples were placed into test tubes and heated in a controlled water bath to 132, 158 and 165° F. Samples were held in a 40° F. cooler for seven days then tested for residual nitrite. Residual nitrite was tested after deproteinization for amino acid analysis by HPLC. Determination of nitrite (UV/VIS Spectrophotometric Method) was used to detect any residual nitrite for best results in detecting minute amounts of nitrite. Residual nitrite levels were read in a 96 well plate reader at 540 nm.
(§3) Both phases of the experiment were designed as a factorial (concentration level and endpoint temperature) randomized complete block design with three replications. […] Least squares means were generated and Tukey's HSD used to determine significance at P≤0.05.

[2] = test system: nitric oxide synthase system; conditions: pork; for Residual Nitrite, LSMean main effect of Temperature: L-arginine
Experimental: as §1, §2, §3

[3] = Phase I, with 547 ppm sodium erythorbate, 2000 ppm L-arginine, 158° F.
[4] = Phase I, with 547 ppm sodium erythorbate, 2000 ppm L-arginine, 165° F.
[5] = Phase I, with 547 ppm sodium erythorbate, 3000 ppm L-arginine
[6] = Phase I, with 547 ppm sodium erythorbate, 3000 ppm L-arginine, 132° F.
[7] = Phase I, with 547 ppm sodium erythorbate, 3000 ppm L-arginine, 158° F.
[8] = Phase I, with 547 ppm sodium erythorbate, 3000 ppm L-arginine, 165° F.
[9] = Phase I, with 547 ppm sodium erythorbate, 4000 ppm L-arginine
[10] = Phase I, with 547 ppm sodium erythorbate, 4000 ppm L-arginine, 132° F.
[11] = Phase I, with 547 ppm sodium erythorbate, 4000 ppm L-arginine, 158° F.
[12] = Phase I, with 547 ppm sodium erythorbate, 4000 ppm L-arginine, 165° F.
[13] = Phase I, with 547 ppm sodium erythorbate, 5000 ppm L-arginine
[14] = Phase I, with 547 ppm sodium erythorbate, 5000 ppm L-arginine, 132° F.
[15] = Phase I, with 547 ppm sodium erythorbate, 5000 ppm L-arginine, 158° F.
[16] = Phase I, with 547 ppm sodium erythorbate, 5000 ppm L-arginine, 165° F.
[17] = Phase I, with 547 ppm sodium erythorbate, 132° F.
[18] = Phase I, with 547 ppm sodium erythorbate, 158° F.
[19] = Phase I, with 547 ppm sodium erythorbate, 165° F.
[20] = Phase II, without 547 ppm sodium erythorbate, 1000 ppm L-arginine
[21] = Phase II, without 547 ppm sodium erythorbate, 1000 ppm L-arginine, 132° F.
[22] = Phase II, without 547 ppm sodium erythorbate, 1000 ppm L-arginine, 158° F.
[23] = Phase II, without 547 ppm sodium erythorbate, 1000 ppm L-arginine, 165° F.
[24] = Phase II, without 547 ppm sodium erythorbate, 2000 ppm L-arginine
[25] = Phase II, without 547 ppm sodium erythorbate, 2000 ppm L-arginine, 132° F.
[26] = Phase II, without 547 ppm sodium erythorbate, 2000 ppm L-arginine, 158° F.
[27] = Phase II, without 547 ppm sodium erythorbate, 2000 ppm L-arginine, 165° F.
[28] = Phase II, without 547 ppm sodium erythorbate, 3000 ppm L-arginine
[29] = Phase II, without 547 ppm sodium erythorbate, 3000 ppm L-arginine, 132° F.
[30] = Phase II, without 547 ppm sodium erythorbate, 3000 ppm L-arginine, 158° F.
[31] = Phase II, without 547 ppm sodium erythorbate, 3000 ppm L-arginine, 165° F.
[32] = Phase II, without 547 ppm sodium erythorbate, 4000 ppm L-arginine
[33] = Phase II, without 547 ppm sodium erythorbate, 4000 ppm L-arginine, 132° F.
[34] = Phase II, without 547 ppm sodium erythorbate, 4000 ppm L-arginine, 158° F.
[35] = Phase II, without 547 ppm sodium erythorbate, 4000 ppm L-arginine, 165° F.
[36] = Phase II, without 547 ppm sodium erythorbate, 5000 ppm L-arginine
[37] = Phase II, without 547 ppm sodium erythorbate, 5000 ppm L-arginine, 132° F.
[38] = Phase II, without 547 ppm sodium erythorbate, 5000 ppm L-arginine, 158° F.
[39] = Phase II, without 547 ppm sodium erythorbate, 5000 ppm L-arginine, 165° F.
[40] = Phase II, without 547 ppm sodium erythorbate, 132° F.
[41] = Phase II, without 547 ppm sodium erythorbate, 158° F.
[42] = Phase II, without 547 ppm sodium erythorbate, 165° F.

N=C(N)NCCC[C@H](N)C(=O)O [L-arginine]
Residual Nitrite, LSMean Conc × Temp [1, 3]: 77.50^a ppm
Residual Nitrite, LSMean Conc × Temp [1, 4]: 75.91^ab ppm
Residual Nitrite, LSMean main effect of Concentration [1, 5]: 54.95^bc ppm and 54.95 ppm
Residual Nitrite, LSMean Conc × Temp [1, 6]: 60.08^abc ppm
Residual Nitrite, LSMean Conc × Temp [1, 7]: 65.81^abc ppm
Residual Nitrite, LSMean Conc × Temp [1, 8]: 38.96^cd ppm
Residual Nitrite, LSMean main effect of Concentration [1, 9]: 48.16^cd ppm and 48.16 ppm
Residual Nitrite, LSMean Conc × Temp [1, 10]: 50.99^a-d ppm
Residual Nitrite, LSMean Conc × Temp [1, 11]: 49.31^a-d ppm
Residual Nitrite, LSMean Conc × Temp [1, 12]: 44.17^cd ppm
Residual Nitrite, LSMean main effect of Concentration [1, 13]: 38.14^d ppm and 38.14 ppm
Residual Nitrite, LSMean Conc × Temp [1, 14]: 41.15^cd ppm
Residual Nitrite, LSMean Conc × Temp [1, 15]: 25.07^d ppm
Residual Nitrite, LSMean Conc × Temp [1, 16]: 48.20^bcd ppm
Residual Nitrite, LSMean main effect of Temperature [1, 17]: 48.43 ppm
Residual Nitrite, LSMean main effect of Temperature [1, 18]: 55.64 ppm
Residual Nitrite, LSMean main effect of Temperature [1, 19]: 53.32 ppm
Residual Nitrite, LSMean main effect of Concentration [1, 20]: 65.37^a ppm and 65.44 ppm
Residual Nitrite, LSMean Conc × Temperature [1, 21]: 87.36^a ppm
Residual Nitrite, LSMean Conc × Temperature [1, 22]: 63.54^ab ppm
Residual Nitrite, LSMean Conc × Temperature [1, 23]: 45.19^ab ppm
Residual Nitrite, LSMean main effect of Concentration [1, 24]: 66.58^a ppm and 72.28 ppm
Residual Nitrite, LSMean Conc × Temperature [1, 25]: 65.60^ab ppm
Residual Nitrite, LSMean Conc × Temperature [1, 26]: 61.51^ab ppm
Residual Nitrite, LSMean Conc × Temperature [1, 27]: 72.63^ab ppm
Residual Nitrite, LSMean main effect of Concentration [1, 28]: 57.60^ab ppm and 54.95 ppm
Residual Nitrite, LSMean Conc × Temperature [1, 29]: 53.90^ab ppm
Residual Nitrite, LSMean Conc × Temperature [1, 30]: 73.59^a ppm
Residual Nitrite, LSMean Conc × Temperature [1, 31]: 45.32^ab ppm
Residual Nitrite, LSMean main effect of Concentration [1, 32]: 60.63^ab ppm and 48.16 ppm
Residual Nitrite, LSMean Conc × Temperature [1, 33]: 67.76^ab ppm
Residual Nitrite, LSMean Conc × Temperature [1, 34]: 52.15^ab ppm
Residual Nitrite, LSMean Conc × Temperature [1, 35]: 61.99^ab ppm
Residual Nitrite, LSMean main effect of Concentration [1, 36]: 45.02^b ppm and 38.14 ppm
Residual Nitrite, LSMean Conc × Temperature [1, 37]: 53.87^ab ppm
Residual Nitrite, LSMean Conc × Temperature [1, 38]: 30.83^b ppm
Residual Nitrite, LSMean Conc × Temperature [1, 39]: 50.37^ab ppm
Residual Nitrite, LSMean main effect of Temperature [1, 40]: 65.70 ppm
Residual Nitrite, LSMean main effect of Temperature [1, 41]: 56.32^ ppm and 56.32 ppm
Residual Nitrite, LSMean main effect of Temperature [1, 42]: 55.10 ppm
Residual Nitrite, LSMean main effect of Concentration ([2]; Phase I, with 547 ppm sodium erythorbate, 1000 ppm L-arginine): 57.57 ppm
Residual Nitrite, LSMean Conc × Temp ([2]; Phase I, with 547 ppm sodium erythorbate, 1000 ppm L-arginine, 132° F.): 39.35 ppm
Residual Nitrite, LSMean Conc × Temp ([2]; Phase I, with 547 ppm sodium erythorbate, 1000 ppm L-arginine, 158° F.): 70.84 ppm
Residual Nitrite, LSMean Conc × Temp ([2]; Phase I, with 547 ppm sodium erythorbate, 1000 ppm L-arginine, 165° F.): 62.52 ppm
Residual Nitrite, LSMean main effect of Concentration ([2]; Phase I, with 547 ppm sodium erythorbate, 2000 ppm L-arginine): 68.91 ppm
Residual Nitrite, LSMean Conc × Temp ([2]; Phase I, with 547 ppm sodium erythorbate, 2000 ppm L-arginine, 132° F.): 80.08 ppm
Residual Nitrite, LSMean Conc × Temp [2, 3]: 66.63 ppm
Residual Nitrite, LSMean Conc × Temp [2, 4]: 60.04 ppm
Residual Nitrite, LSMean main effect of Concentration [2, 5]: 61.54 ppm
Residual Nitrite, LSMean Conc × Temp [2, 6]: 60.68 ppm
Residual Nitrite, LSMean Conc × Temp [2, 7]: 61.71 ppm
Residual Nitrite, LSMean Conc × Temp [2, 8]: 62.24 ppm
Residual Nitrite, LSMean main effect of Concentration [2, 9]: 52.07 ppm
Residual Nitrite, LSMean Conc × Temp [2, 10]: 48.21 ppm
Residual Nitrite, LSMean Conc × Temp [2, 11]: 52.12 ppm
Residual Nitrite, LSMean Conc × Temp [2, 12]: 55.87 ppm
Residual Nitrite, LSMean main effect of Concentration [2, 13]: 64.52 ppm
Residual Nitrite, LSMean Conc × Temp [2, 14]: 40.28 ppm
Residual Nitrite, LSMean Conc × Temp [2, 15]: 65.12 ppm
Residual Nitrite, LSMean Conc × Temp [2, 16]: 88.16 ppm
Residual Nitrite, LSMean main effect of Temperature [2, 17]: 53.72 ppm
Residual Nitrite, LSMean main effect of Temperature [2, 18]: 63.29 ppm
Residual Nitrite, LSMean main effect of Temperature [2, 19]: 65.72 ppm
Residual Nitrite, LSMean main effect of Concentration [2, 20]: 73.46^b ppm and 73.46 ppm
Residual Nitrite, LSMean Conc × Temperature [2, 21]: 53.73^c ppm
Residual Nitrite, LSMean Conc × Temperature [2, 22]: 84.43^bc ppm
Residual Nitrite, LSMean Conc × Temperature [2, 23]: 82.22^bc ppm
Residual Nitrite, LSMean main effect of Concentration [2, 24]: 94.97^ab ppm and 94.97 ppm
Residual Nitrite, LSMean Conc × Temperature [2, 25]: 85.87^bc ppm
Residual Nitrite, LSMean Conc × Temperature [2, 26]: 113.28^ab ppm
Residual Nitrite, LSMean Conc × Temperature [2, 27]: 85.76^bc ppm
Residual Nitrite, LSMean main effect of Concentration [2, 28]: 85.31^ab ppm and 85.31 ppm
Residual Nitrite, LSMean Conc × Temperature [2, 29]: 68.26^bc ppm
Residual Nitrite, LSMean Conc × Temperature [2, 30]: 90.54^bc ppm
Residual Nitrite, LSMean Conc × Temperature [2, 31]: 97.13^bc ppm
Residual Nitrite, LSMean main effect of Concentration [2, 32]: 102.65^a ppm and 102.65 ppm
Residual Nitrite, LSMean Conc × Temperature [2, 33]: 71.48^bc ppm
Residual Nitrite, LSMean Conc × Temperature [2, 34]: 150.78^a ppm
Residual Nitrite, LSMean Conc × Temperature [2, 35]: 85.70^bc ppm
Residual Nitrite, LSMean main effect of Concentration [2, 36]: 72.06^b ppm and 72.06 ppm
Residual Nitrite, LSMean Conc × Temperature [2, 37]: 59.74^c ppm
Residual Nitrite, LSMean Conc × Temperature [2, 38]: 77.63^bc ppm
Residual Nitrite, LSMean Conc × Temperature [2, 39]: 78.82^bc ppm
Residual Nitrite, LSMean main effect of Temperature [2, 40]: 67.81^c ppm and 67.81 ppm
Residual Nitrite, LSMean main effect of Temperature [2, 41]: 103.33^a ppm and 103.33 ppm
Residual Nitrite, LSMean main effect of Temperature [2, 42]: 85.93^b ppm and 85.93 ppm
